Measurements from PubChem BioAssay (NCI).
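GI50: concentration for 50% inhibition of growth. TGI marks complete inhibition of growth.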

Experiments:
Experiment in all cases: inhibition of tumour cell growth, NCI panel, 384-well format
HOP-92 NSCLC = system: HOP-92 NSCLC
TK-10 renal = system: TK-10 renal
T-47D breast = system: T-47D breast
HS 578T breast = system: HS 578T breast
SF-539 CNS = system: SF-539 CNS
RXF 393 renal = system: RXF 393 renal
SNB-75 CNS = system: SNB-75 CNS
PC-3 prostate = system: PC-3 prostate
RPMI-8226 leukemia = system: RPMI-8226 leukemia
OVCAR-4 ovarian = system: OVCAR-4 ovarian
SR leukemia = system: SR leukemia
MOLT-4 leukemia = system: MOLT-4 leukemia
OVCAR-8 ovarian = system: OVCAR-8 ovarian
UACC-62 melanoma = system: UACC-62 melanoma
SF-295 CNS = system: SF-295 CNS
SK-MEL-28 melanoma = system: SK-MEL-28 melanoma
M14 melanoma = system: M14 melanoma
MCF7 breast = system: MCF7 breast
HCC-2998 colon = system: HCC-2998 colon
KM12 colon = system: KM12 colon
CAKI-1 renal = system: CAKI-1 renal
NCI-H460 NSCLC = system: NCI-H460 NSCLC
786-0 renal = system: 786-0 renal
EKVX NSCLC = system: EKVX NSCLC
NCI-H23 lung = system: NCI-H23 lung
HT29 colon = system: HT29 colon
HL-60(TB) leukemia = system: HL-60(TB) leukemia
SN12C renal = system: SN12C renal
MALME-3M melanoma = system: MALME-3M melanoma
SW-620 colon = system: SW-620 colon
BT-549 breast = system: BT-549 breast
MDA-MB-468 breast = system: MDA-MB-468 breast
NCI-H522 lung = system: NCI-H522 lung
COLO 205 colon = system: COLO 205 colon
IGROV1 ovarian = system: IGROV1 ovarian
NCI-H226 lung = system: NCI-H226 lung
NCI-H322M lung = system: NCI-H322M lung
UACC-257 melanoma = system: UACC-257 melanoma
OVCAR-3 ovarian = system: OVCAR-3 ovarian
A498 renal = system: A498 renal
HCT-15 colon = system: HCT-15 colon
HOP-62 NSCLC = system: HOP-62 NSCLC
SK-OV-3 ovarian = system: SK-OV-3 ovarian
LOX IMVI melanoma = system: LOX IMVI melanoma
A549 NSCLC = system: A549 NSCLC
NCI/ADR-RES ovarian = system: NCI/ADR-RES ovarian
SK-MEL-5 melanoma = system: SK-MEL-5 melanoma
K-562 leukemia = system: K-562 leukemia
ACHN renal = system: ACHN renal
CCRF-CEM leukemia = system: CCRF-CEM leukemia
MDA-MB-231 breast = system: MDA-MB-231 breast
DU-145 prostate = system: DU-145 prostate
MDA-MB-435 melanoma = system: MDA-MB-435 melanoma
OVCAR-5 ovarian = system: OVCAR-5 ovarian
SNB-19 CNS = system: SNB-19 CNS
SF-268 CNS = system: SF-268 CNS
UO-31 renal = system: UO-31 renal

`COc1cc2c(Oc3ccc4[nH]c(C)cc4c3F)ccnc2cc1OCC1(N)CC1` showed a GI50 (HOP-92 NSCLC) of 477 nM, a TGI (HOP-92 NSCLC) of 1900 nM and a GI50 (TK-10 renal) of 1600 nM. For the same compound, the TGI (TK-10 renal) was 3320 nM, the GI50 (T-47D breast) was 1600 nM and the TGI (T-47D breast) was 5360 nM. It also gave a GI50 (HS 578T breast) of 294 nM, a TGI (HS 578T breast) of 1040 nM and a GI50 (SF-539 CNS) of 270 nM. It also gave a TGI (SF-539 CNS) of 1140 nM, a GI50 (RXF 393 renal) of 648 nM and a TGI (RXF 393 renal) of 2090 nM. It also gave a GI50 (SNB-75 CNS) of 314 nM, a TGI (SNB-75 CNS) of 1070 nM and a GI50 (PC-3 prostate) of 809 nM. The TGI (PC-3 prostate) was 2290 nM, the GI50 (RPMI-8226 leukemia) was 753 nM and the TGI (RPMI-8226 leukemia) was 1990 nM. For the same compound, the GI50 (OVCAR-4 ovarian) was 543 nM, the TGI (OVCAR-4 ovarian) was 3180 nM and the GI50 (SR leukemia) was 182 nM. It also gave a TGI (SR leukemia) of 350 nM, a GI50 (MOLT-4 leukemia) of 223 nM and a TGI (MOLT-4 leukemia) of 419 nM. For the same compound, the GI50 (OVCAR-8 ovarian) was 1510 nM, the TGI (OVCAR-8 ovarian) was 3270 nM and the GI50 (UACC-62 melanoma) was 396 nM. The TGI (UACC-62 melanoma) was 1410 nM, the GI50 (SF-295 CNS) was 346 nM and the TGI (SF-295 CNS) was 1250 nM. The GI50 (SK-MEL-28 melanoma) was 828 nM, the TGI (SK-MEL-28 melanoma) was 2080 nM and the GI50 (M14 melanoma) was 519 nM. It also gave a TGI (M14 melanoma) of 1660 nM, a GI50 (MCF7 breast) of 359 nM and a TGI (MCF7 breast) of 7730 nM. For the same compound, the GI50 (HCC-2998 colon) was 1370 nM, the TGI (HCC-2998 colon) was 2850 nM and the GI50 (KM12 colon) was 474 nM. The TGI (KM12 colon) was 1740 nM, the GI50 (CAKI-1 renal) was 881 nM and the TGI (CAKI-1 renal) was 2310 nM. The GI50 (NCI-H460 NSCLC) was 714 nM, the TGI (NCI-H460 NSCLC) was 2030 nM and the GI50 ([…]-0 renal) was 465 nM. For the same compound, the TGI (786-0 renal) was 1630 nM, the GI50 (EKVX NSCLC) was 867 nM and the TGI (EKVX NSCLC) was 2850 nM. For the same compound, the GI50 (NCI-H23 lung) was 1030 nM, the TGI (NCI-H23 lung) was 2520 nM and the GI50 (HT29 colon) was 364 nM. For the same compound, the TGI (HT29 colon) was 1450 nM, the GI50 (HL-60(TB) leukemia) was 240 nM and the TGI (HL-60(TB) leukemia) was 463 nM. It also gave a GI50 (SN12C renal) of 1120 nM, a TGI (SN12C renal) of 2860 nM and a GI50 (MALME-3M melanoma) of 375 nM. The TGI (MALME-3M melanoma) was 1460 nM, the GI50 (SW-620 colon) was 541 nM and the TGI (SW-620 colon) was 1950 nM. The GI50 (BT-549 breast) was 383 nM, the TGI (BT-549 breast) was 1190 nM and the GI50 (MDA-MB-468 breast) was 253 nM. For the same compound, the TGI (MDA-MB-468 breast) was 567 nM, the GI50 (NCI-H522 lung) was 274 nM and the TGI (NCI-H522 lung) was 672 nM. The GI50 (COLO 205 colon) was 1300 nM, the TGI (COLO 205 colon) was 3010 nM and the GI50 (IGROV1 ovarian) was 1200 nM. It also gave a TGI (IGROV1 ovarian) of 4350 nM, a GI50 (NCI-H226 lung) of 1110 nM and a TGI (NCI-H226 lung) of 3020 nM. It also gave a GI50 (NCI-H322M lung) of 1440 nM, a TGI (NCI-H322M lung) of 3420 nM and a GI50 (UACC-257 melanoma) of 427 nM. For the same compound, the TGI (UACC-257 melanoma) was 1290 nM, the GI50 (OVCAR-3 ovarian) was 278 nM and the TGI (OVCAR-3 ovarian) was 797 nM. For the same compound, the GI50 (A498 renal) was 400 nM, the TGI (A498 renal) was 1690 nM and the GI50 (HCT-15 colon) was 493 nM. The TGI (HCT-15 colon) was 1760 nM, the GI50 (HOP-62 NSCLC) was 664 nM and the TGI (HOP-62 NSCLC) was 2060 nM. The GI50 (SK-OV-3 ovarian) was 539 nM, the TGI (SK-OV-3 ovarian) was 1920 nM and the GI50 (LOX IMVI melanoma) was 705 nM. For the same compound, the TGI (LOX IMVI melanoma) was 1990 nM, the GI50 (A549 NSCLC) was 1080 nM and the TGI (A549 NSCLC) was 3150 nM. It also gave a GI50 (NCI/ADR-RES ovarian) of 936 nM, a TGI (NCI/ADR-RES ovarian) of 2210 nM and a GI50 (SK-MEL-5 melanoma) of 416 nM. For the same compound, the TGI (SK-MEL-5 melanoma) was 1320 nM, the GI50 (K-562 leukemia) was 421 nM and the TGI (K-562 leukemia) was 1390 nM. For the same compound, the GI50 (ACHN renal) was 1160 nM, the TGI (ACHN renal) was 3440 nM and the GI50 (CCRF-CEM leukemia) was 722 nM. It also gave a TGI (CCRF-CEM leukemia) of 1880 nM, a GI50 (MDA-MB-231 breast) of 1170 nM and a TGI (MDA-MB-231 breast) of 3540 nM. The GI50 (DU-145 prostate) was 2160 nM, the TGI (DU-145 prostate) was 7360 nM and the GI50 (MDA-MB-435 melanoma) was 228 nM. It also gave a TGI (MDA-MB-435 melanoma) of 497 nM, a GI50 (OVCAR-5 ovarian) of 1920 nM and a TGI (OVCAR-5 ovarian) of 3870 nM. The GI50 (SNB-19 CNS) was 821 nM, the TGI (SNB-19 CNS) was 2970 nM and the GI50 (SF-268 CNS) was 683 nM. It also gave a TGI (SF-268 CNS) of 2070 nM, a GI50 (UO-31 renal) of 1300 nM and a TGI (UO-31 renal) of 2760 nM.
